Measurements from patent US20250295609A1, “COMPOUND HAVING ANTI-ANDROGEN RECEPTOR ACTIVITY, AND USE THEREOF” (NANJING MINOVA PHARMACEUTICAL CO., LTD., priority 2022, published 2025).
pIC50: −log10 of the molar value. Like-named read-outs stand apart in the source and are kept apart here.

Experiments:
[1] = tested on: human prostate cancer cells LNCaP; assay: Cell viability inhibition assay (CTG) on LNCaP cells in presence of DHT; type: cell-based; settings: Homo sapiens, 120 h, read-out: Inhibitory activity against human prostate cancer cell LNCaP IC50
Excerpt: Human prostate cancer cells LNCaP and human prostate cancer cells 22Rvl are present in patients with prostate cancer. An androgen, DHT, is able to promote the growth of human prostate cancer cells LNCaP. Using the cell model described above was intended to study the inhibitory effects of the compounds of the present disclosure on the growth of human prostate cancer cells (human prostate cancer cells LNCaP and human prostate cancer cells 22Rvl) in the presence or absence of DHT.
The medium in the culture dish was discarded, and 5 mL of trypsin was added for digestion for about 3 mins. The digestion was stopped by adding 10 mL of a fresh medium. The cells were fully pipetted and transferred to a 15 mL centrifuge tube, and the cells were collected by centrifugation at 1000 rpm for 5 mins. The cells collected by centrifugation were resuspended in 11 mL of a fresh medium. 1 mL of the cells was taken and counted, and the cell viability was detected. The cell density was adjusted to 1×10^4 cells/mL by adding an appropriate amount of the medium. The cells were seeded in a 96-well plate at 200 µL/well, and the plate was incubated overnight in a cell incubator.
After the cells were attached to the well, for the human prostate cancer cells LNCaP group, test compounds (0.1 μM, 0.3 μM, 1 μM, 3 μM, 10 μM, and 30 μM) and DHT (1 nM, inducing the expression of AR) were added to the 96-well plate, and the plate was incubated for another 5 days; for the human prostate cancer cells 22Rvl group, test compounds (0.1 μM, 0.3 μM, 1 μM, 3 μM, 10 μM, and 30 μM) were added to the 96-well plate, and the plate was incubated for another 5 days. […] The 96-well plate was equilibrated at room temperature for 30 mins. The cell viability was detected by using a CTG method. Before detection, CellTiter-Glo® Buffer and a substrate thereof (collectively called CTG reagent) were thawed and equilibrated to room temperature. Then, […] of Buffer was gently mixed with the substrate to form a homogeneous solution. The homogeneous solution was added to the 96-well plate at 100 µL/well, and the 96-well plate was incubated on a shaker for 15 mins. The fluorescence value in each well was then detected. The detection method for the fluorescence value in each well was as follows: after adding the CTG reagent, luminescence detection (integration time: 500 ms) was performed by using a correspondingly equipped multi-mode microplate reader (M200Pro, TECAN, Switzerland) according to the supplier's manual to quantify the effect of the inhibitor on the cell viability. For data analysis, an assay background value was subtracted from all data points, which was determined in wells containing the medium but no cells. Data were processed using the XLfit software (XLfit 5.2., IDBS, UK), and IC50 values of the test compounds were calculated.

alopecia mouse model = assay: Hair growth promotion test in mice with alopecia (testosterone propionate model); type: in vivo, C57BL/6 mice; settings: for growth of hairs and hair follicles compared to positive control drug group (in words): daily dose 1.5 mg, FIG. 3; for Number of hair follicles (X ± SD): day 18, per field (×100), HE staining, topical once daily for 16 days; for Hair length (X ± SD): day 18, topical once daily for 16 days, testosterone propionate alopecia mice
Description: The compounds of the present disclosure were tested for their hair growth-promoting effects on an alopecia mouse model.
C57BL/6 mice (purchased from SPF (Beijing) Biotechnology Co., Ltd., production license No.: SCXK (Beijing) 2019-0010), test compounds (prepared by the method of the present disclosure), rosin (Shanghai YuanYe Bio-Technology Co., Ltd., lot No. Y18M10C83144), liquid paraffin (Shanghai YuanYe Bio-Technology Co., Ltd., lot No.: Z22S11Y125555), chloral hydrate (Sinopharm Chemical Reagent Co., Ltd., lot No.: 20190823, a 2% chloral hydrate solution was prepared by using a 0.9% sodium chloride solution before use), testosterone propionate (Aladdin Reagent (Shanghai) Co., Ltd., lot No.: T101368, a 0.5% testosterone propionate solution was prepared by using an a soybean oil for injection before use), soybean oil for injection (Liaoning Shinsun Pharmaceutical Co., Ltd., lot No.: NMPA Approval No. H21024303), paraformaldehyde (Xilong Scientific Co., Ltd., lot No.: 1705022), a 0.9% sodium chloride solution (Jiangsu Huai'an Shuanghe Pharmaceutical Co., Ltd., lot No.: 210322-3C), an electronic balance (Beijing Sartorius Scientific Instruments Co., Ltd., model: BS224 S; GZX-9140MBE), and a digital display electric heating constant temperature air blast drying oven (Shanghai Boxun Medical Biological Instrument Corp.).
8-week-old male C57BL/6 mice were selected and injected with 2% chloral hydrate (400 mg/kg) for anesthesia. Equal amounts of rosin and paraffin were weighed out, heated, and mixed well. The mixture was applied on the front back of the mice in an area of about 2 cm×2.5 cm. After the mixture was cooled to be hard, the solidified hair was torn off by tweezers gently.
Qualified C57BL/6 mice (3 mice per group) were randomly assigned to a blank group, a model group, a positive control drug group (7.5% clascoterone group), and test groups (including 0.3% compound 8 group and 0.3% compound 7 group). Mice in the blank group were coated with 0.1 mL of normal saline in the depilated area every morning (1 time a day for 17 consecutive days); mice in the model group were coated with 0.1 mL of 0.5% testosterone propionate solution in the depilated area every morning (1 time a day, starting on the first day, for 17 consecutive days), and with 0.5 mL of the control solvent in the depilated area every afternoon (1 time a day, starting on the second day, for 16 consecutive days); mice in the positive control drug group were coated with 0.1 mL of 0.5% testosterone propionate solution in the depilated area every morning (1 time a day, starting on the first day, for 17 consecutive days), and with 0.5 mL of 7.5% clascoterone solution in the depilated area every afternoon (1 time a day, starting on the second day, for 16 consecutive days); and mice in the test groups were coated with 0.1 mL of 0.5% testosterone propionate solution in the depilated area every morning (1 time a day, starting on the first day, for 17 consecutive days), and with 0.5 mL of 0.3% test compound solution in the depilated area every afternoon (1 time a day, starting on the second day, for 16 consecutive days). The formula of the test compound solution was 0.3% test compound, 40% DMSO, 30% ethanol, and the balance of water; the formula of the control solvent was 40% DMSO, 30% ethanol, and the balance of water; the formula of the positive control drug group was 7.5% clascoterone, 40% DMSO, 30% ethanol, and the balance of water. The hair regrowth in the depilated area of the mice in each group was observed and photographed 16 days after the start of topical administration of the test compound solution.
On day 18 of the test, 5 new hairs were pulled out from the back depilated area of each mouse in each group, the lengths of the hairs were measured using a vernier caliper, and the lengths of the hairs of the mice in each group were counted. The skin of the depilated area of the mice in each group was cut out, and hematoxylin-eosin staining (HE staining) was performed. […]

[2] = Pharmacokinetic study, single oral administration to SD rats; settings: for AUC(0-t) / Cmax / Tmax / half-life: male, SD, rat, po, 50 mg/kg
Description: Experimental method: Male SD rats were randomly grouped (3 rats per group), given ad libitum access to water during the assay, fasted for 12 or more hours before administration, and given food 4 hours after administration.
The blood was centrifuged within 60 min of being collected to isolate plasma (centrifuged at 8000 rpm at 2-8° C. for 5 min). After the centrifugation, the plasma was transferred to a 96-well plate or centrifuge tubes, transported in a box with ice, and stored at ≤−15° C. before LC-MS/MS analysis. The drug concentration in the plasma of SD rats was measured by LC-MS/MS bioanalysis, and the plasma concentration-time data were analyzed using WinNonlin™ (Version 8.3, Certara, USA) and a non-compartmental model to evaluate the pharmacokinetic (PK) profiles of the compounds in SD rats.

pIC50 ([1]; 1 nM DHT, 5 days, CTG) | AUClast in rats (comparison in words) ([2]; SD rats, oral, same dose, FIG. 2) | AUC(0-t) ([2]; plasma) | Cmax ([2]; plasma) | Tmax ([2]; plasma) | half-life ([2]; plasma) | SMILES | growth of hairs and hair follicles compared to positive control drug group (in words) (alopecia mouse model) | Number of hair follicles (X ± SD) (alopecia mouse model) | Hair length (X ± SD) (alopecia mouse model) | pIC50 [1] | AUC(0-t) ([2]; in vivo) | Cmax ([2]; in vivo) | Tmax ([2]; in vivo) | half-life ([2]; in vivo)
6.21 | higher AUClast than that of compound 7 | 1010 ng·h/mL | 282 ng/mL | 19.8 min | 94.2 min | COc1ccc(/C=C/C(=O)C2(C(=O)/C=C/c3ccc(OC)c(OC)c3)CCC(F)(F)CC2)cc1OC [Compound 8] | better than that of the positive control drug group | 116.733 ± 35.809 | 4.493 ± 0.024 mm | – | – | – | – | –
– | – | – | – | – | – | COc1ccc(/C=C/C(=O)C2(C(=O)/C=C/c3ccc(OC)c(OC)c3)CCC(=O)CC2)cc1OC [Compound 7] | better than that of the positive control drug group | 95.600 ± 26.091 | 3.850 ± 0.009 mm | 6.08 | 460 ng·h/mL | 298 ng/mL | 11.4 min | 177 min
